This is an account of results in patent US11434490B2, “Fluorogen-binding RNA aptamers” (CENTRE NATIONAL DE LA RECHERCHE SCIENTIFIQUE, priority 2017, dated 2022).

Data set [1] in a line: Salt dependence of Mango/TO1-Biotin fluorescence: K+ titration. Type of data set: binding. The note with it: for Kd / Hill Coefficients K^+: 25 nM RNA, 50 nM TO1-Biotin, 10 mM Tris pH 7.2; for Hill Coefficients K^+: * estimated from initial rise of fluorescence. As for the experimental part:
(§1) FIG. 10|Salt dependence of new Mango variants. Dependence of fluorescence of each Mango for (a) K^+, (b) Na^+ in place of K^+, and (c) Mg^2+ ions in a buffer containing 140 mM K^+. […] 10 mM Tris buffer (pH 7.2) was used in place of phosphate of the WB buffer to avoid monovalent counter ions. Color-coding is as follows: Black—Mango I, Blue—Mango II, Green—Mango III, Orange—Mango IV. Hill coefficients are fitted to dark points. Points in lighter shade have been excluded from the fit. Error bars are standard deviations of three replicates.

Data set [2] in a line: Salt dependence of Mango/TO1-Biotin fluorescence: Na+ in place of K+. Type of data set: binding. The protocol:
as §1

The nature of data set [3]: Salt dependence of Mango/TO1-Biotin fluorescence: Mg2+ titration. The note with it: in the presence of potassium; Mg2+ 256 mM. As for the experimental part: as §1
The nature of data set [4]: Brightness and photophysics of Mango fluorophore complexes. Type of data set: physicochemical. From the text:
(§2) FIG. 2|RNA Mango I, II, III and IV core sequences and their properties. (a) Color coded alignment of RNA Mango I, II, III and IV. G residues in yellow are protected from DMS cleavage (data from panel d) when folded in the presence of fluorophore. Quadruplex stacks and their associated propeller sequences are numbered 1 through 4. The GAAA isolation motif of Mango I, together with two adenines essential for binding, are shown in green and red respectively. Purple shading represents a flanking stem region common for all four Mango aptamers. Schematic: A tertiary structure schematic of Mango I, showing tier 1, 2 and 3 of its quadruplex structure (T1, T2 and T3) and color-coded as in (a). […] Bottom: Top view of the Mango I core (PBD ID: 5V3F), showing the T3 tier of the quadruplex and relevant propeller residues, color coding matches the schematic and panel a. […] KD values are shown next to each titration. (c) Same as for panel b but using 20 nM TO3-Biotin. Data for panels b and c have been normalized such that Mango I has a maximum fluorescence of 1. Error bars are standard deviation of three replicates. (d) DMS chemical protection patterns for the four Mango aptamers. 3′ end-labelled RNA (terminal ^32pCp shown as a black asterisk) was subjected to DMS chemical modification followed by reduction by NaBH4 and aniline cleavage as described in the methods. […] Legend: T1—denatured T1 ladder; OH—partial alkaline hydrolysis ladder; (−) DMS—denatured reaction with ddH2O added in place of DMS; 80° C.
FIG. 13|Photophysics: excitation/emission. (a) Excitation (dark curve) and emission (light curve) spectra of each Mango. All Mangos have Δex max=510 nm and Δem max=535 nm. Color-coding is as follows: Black—Mango I, Blue—Mango II, Green—Mango III, Red—Mango IV.
(§3) Fluorescence data was gathered using a Varian Cary Eclipse Spectrophotometer unless otherwise stated. […] Fluorescence was measured at the maximum excitation and emission wavelengths of each complex (FIG. 13).

Data set [5] in a line: Formaldehyde resistance assay. The format is physicochemical. The note with it: in vitro, TO1-Biotin. As for the experimental part:
FIG. 15|Effect of formaldehyde on Mango fluorescence. […] In (b) RNA is incubated with the corresponding amounts of formaldehyde first for one hour, then TO1-Biotin is added. Data for each panel is normalized to RFU at the 0% formaldehyde, 0 min point.
RNA Mango aptamers were incubated with TO1-Biotin in WB buffer for at least one hour until equilibrium fluorescence was reached. […] Fluorescence was measured as a kinetic run at a rate of 2 readings per minute using a Varian Cary Eclipse Fluorescence Spectrophotometer, ex/em=510±2.5/535±5 nm.

The nature of data set [6]: Photobleaching under constant illumination. The following applies: identical illumination conditions, on average. As for the experimental part:
FIG. 16|Formation of 5S-Mango foci and their dynamics in live cells. (a) 5S-Mango IV imaged post cell fixation at 5, 15, 30 and 60 mins after transfection using Lipofectamine based CRISPRMAX transfection reagent. […] (c) Root mean-squared displacement (RMSD) of three observed foci with different diffusive behaviors, fast (Green), slow (Blue) and static (Red) shown in Video 3. Scale bars are 10 μm and arrows indicate foci of interest. (d) Normalized photobleaching traces of 5S-F30-Mango I and IV compared to 5S-F30-dBroccoli under constant illumination with an exposure time of 200 ms. Photobleaching half-lives are stated in the table adjacent and were calculated from an exponential fit of each curve.

The conditions of data set [7]: read-out: Kd for TO1-Biotin, original RNA Mango, earlier work, cited from earlier work.
For data set [8] the following is noted: original RNA Mango, earlier work; read-out: Kd for TO3-Biotin; cited from earlier work.
Data set [9] in a line: Fluorescence titration, binding affinity for TO1-Biotin.
Source text: as §2, §3
Where F([RNA]) is the fluorescence as a function of RNA concentration [RNA], Fmax is the maximal fluorescence of the bound complex and Funbound the fluorescence of the unbound fluorophore. When the fluorescence of Funbound was undetectable, it was set to zero.
Fluorescence readings were recorded using a Varian Cary Eclipse Spectrophotometer set to measure at the maximum excitation and emission wavelengths of the Mango II aptamer dye complex. Fluorescence titrations were performed in Mango selection buffer (WB: 140 mM KCl, 1 mM MgCl2, 10 mM NaH2PO4 pH 7.2, 0.05% Tween-20).

The test system of another data set is Circular template. As to the kind of experiment: Rolling circle transcription of Mango III. The note with it: room temperature, excess TO1-Biotin. Type of data set: biochemical. From the text:
FIG. 33|Rolling circle transcription of Mango III.
FIG. 34|Rolling circle transcription of Mango III. Circular construct represented here was used in FIG. 33. Purple: T7 binding site, red and orange template hybridization arms (ligation site between them). Blue Mango sequence.
This illustrates that in select embodiments Mango aptamers may be used for detection of nucleic acids in a two-step fluorescence-based detection system using the Mango aptamers as the reporter. […] Nucleic acid concentration can be discerned by a simple fluorescence reading. In these assays, the Mango III fluorescence emerged rapidly upon the addition of the RNA polymerase (FIG. 32).

Data set [10] in a line: Brightness response to a fluorophore series. Type of data set: biochemical. The following applies: 500 nM RNA, 10 nM fluorophore. The protocol: FIG. 53|Brightness response of MI, MII, MIII mutants and MIV to a fluorophore series. Single fluorescence point reads done in triplicate. 500 nM RNa was incubated with 10 nM fluorophore at room temperature for ˜1 h to allow folding of the RNA aptamers in 1×WB (140 mM KCl, 1 mM MgCl2, 10 mM NaH2PO4, pH 7.2.

The next data set deals with HEK293T cells. As to the kind of experiment: Cellular imaging of transfected Mango tagged RNAs. The note with it: against 5S-F30-Mango-IV. Type of data set: cell-based. As for the experimental part:
HEK293T cells were grown in Dulbecco Modified Eagle's Medium containing 10% Fetal Bovine Serum, 2 mM D-Glucose, 2 mM L-Glutamine, 1 mM Sodium Pyruvate and 100 U/ml Penicillin/Streptomycin (Thermo Fisher) and maintained at 37° C. with 5% CO2 in a humidified incubator. Cells used for imaging were cultured in Ibidi glass bottomed 8-well chamber slides (Ibidi GmbH).
RNA was transfected directly into 8-well chamber slides using the Lipofectamine-based CRISPRMAX reagent following the manufacturers guidelines (Invitrogen). Initially 125 nM RNA containing 10 mM Sodium Phosphate buffer (pH 7.2), 100 mM KCl and 1 mM MgCl2 was incubated at room temperature followed by a 1:1 dilution in OptiMEM prior to transfection. The RNA transfected was incubated at 37° C. for 1 hour in complete growth medium.
Cells were fixed in PBS containing 4% paraformaldehyde for 10 min on ice (Thermo Fisher) followed by permeabilization in 0.2% Triton X-100 for 10 min at room temperature. Cells were first blocked (2% BSA in PBS) for 30 min followed by primary antibody (1:50-1:500 dilutions) incubation for 120 min in blocking solution.
Primary antibodies used here were: Anti-Ribosomal Protein S6 (MAB5436, R&D Systems), Anti-ATP5B (ab14730, Abcam), Anti-GW182 (ab7052, Abcam), Anti-EEA-1 (ab70521, Abcam), Anti-LSm3 (NBP2-14206, Novus Biologicals), Anti-TIAR (sc-398372, Santa Cruz). Secondary antibodies used were Donkey Anti-mouse and Donkey Anti-Rabbit Alexa Fluor 680 (Molecular Probes). Primary antibodies were washed three times for 20 min each in blocking solution followed by incubation with secondary antibody at 1:500 dilution for 60 min, which was subsequently washed as above.
To visualize the nuclear boundary in live cells, a plasmid expressing a fluorescently tagged histone protein (EBFP2-H2B-6, Addgene plasmid 55243) was transfected using FuGene 6 (Promega) 24 h prior to RNA transfection. […] Following incubation of the RNA transfection, the cells were washed once with PBS and replaced with live-cell imaging media (Fluorobrite DMEM supplemented with 20 mM HEPES, Invitrogen). Live and fixed cell images were taken using a Zeiss Elyra wide-field microscope by exciting at 405 nm (Blue), 488 nm (Green) and 642 nm (Far-Red) and detecting at 420-480 nm, 495-550 nm and >650 nm, respectively. Live cells were maintained at 37° C. with 5% CO2 in a stage top incubator (Tokai Hit). Images were processed using FIJI and spot detection analysis was performed on each maximum projection by the spot detector plugin in the ICY image analysis software, which detects significant foci with a pixel area 3×3 pixels.

The nature of data set [11]: In vitro fluorescence of Mango tagged RNA constructs. The format is biochemical. The note with it: 40 nM TO1-Biotin, 200 nM RNA. From the text:
FIG. 14|RNA scaffold diagrams. Diagrams of the 5S-Mango and U6-Mango constructs synthesized (sequences in Table 2) and their fluorescence emission as a function of wavelength after excitation at 505 nm, compared to unmodified Mango I-IV.
DNA encoding the F30 folding scaffold was modified to incorporate the Mango RNA sequences and ordered from (Intergrated DNA Technologies). The DNA was amplified by PCR to incorporate 5′ SalI and 3′ Xbal restriction sites. PCR products were digested using Fast Digest enzymes (Thermo Fisher) and ligated into SalI/Xbal linearized and Shrimp Alkaline Phosphotase (NEB) treated pAV5S-F30-2xdBroccoli (Addgene plasmid 66845, a gift from Dr S. Jaffrey). DNA encoding the full 5S-F30-Mango sequence was PCR amplified and a 5′ T7 RNA polymerase promoter introduced. DNA was transcribed in vitro with T7 RNA polymerase (NEB) at 37° C. for 16 h in 40 mM Tris-HCl, 30 mM MgCl2, 2 mM spermidine, 1 mM dithiothreitol, 5 mM rNTPs, 1 U/μl E. coli inorganic pyrophosphotase, 4 U/μl T7 RNA polymerase (pH 7.9). RNA was purified from an 8 M urea denaturing polyacrylamide […] gel followed by elution in RNA elution buffer (40 mM Tris-HCl pH 8.0, 0.5 M sodium acetate, 0.1 mM EDTA) and ethanol precipitation.

Where [12] appears, read: Na+ in place of K+, 25 nM RNA, 50 nM TO1-Biotin.

Where two headings read alike, the source gives them in different places.

One may read the Kd as the equilibrium constant for the complex coming apart.

As to “Mango-I: original RNA Mango aptamer; core SEQ ID NO: 1 GAAGGGACGGUGCGGAGAGGAGA (chemistry not given here) [reference compound]”, the Kd in [1] was 48 ± 5 mM; in data set [7], ~0.003 µM; in [7] (listed as RNA Mango) it was 0.0031 µM; in data set [8], 0.008 µM. The “Hill Coefficients K^+” value in data set [1] is on record as 1.2 ± 0.1. Also, the “fluorescence in the presence of sodium ions” value in data set [2] is given as “did not fluoresce appreciably”. In data set [3], the “effect of high levels of Mg^2+ on fluorescence” value was “strongly inhibited”. Further, in data set [4], the “quantum yield of the TO1-Biotin complex” value was found to be 0.14. Moreover, the “brightness of the TO1-Biotin bound complex” value in data set [4] is given as 11,000 M^−1cm^−1. For the same substance, the resistance to formaldehyde result in [5] is given as “substantially resistant to formaldehyde”. Also, the “bleaching half-lives longer than RNA Spinach” value in data set [6] was determined as 10 times.

Turning to “Mango-III: minimal construct engineered from isolate R5-NMM-20; two-tiered G-quadruplex aptamer”, the “TO1-Biotin binding affinity (in words)” value in data set [9] was “slightly weaker affinities than Mango-I”. Further, in data set [1], the Kd is 0.4 ± 0.1 mM and the “Hill Coefficients K^+” value is on record as 1.0 ± 0.8*. Moreover, in data set [1] (against the other Mangos), the “higher affinity of the fluorescence response to potassium and sodium” value is “two order of magnitude”. Moreover, in data set [2] (setting [12]), the “Hill Coefficients Na^+” value came out at 0.5 ± 0.5 and the Kd turned out to be 0.8 ± 0.3 mM. Also, the “effect of high levels of Mg^2+ on fluorescence” value in [3] is reported as “only modestly inhibited”. Besides, in data set [4] (TO1-Biotin bound complex), the “brighter than enhanced GFP (EGFP)” value came out at 1.3 times. In data set [4], the “brightness of the TO1-Biotin bound complex” value is 43,000 M^−1cm^−1. The “brighter than Mango-I” value in data set [4] (TO1-Biotin, FIG. 2b) was 4 fold. In addition, the sensitivity in the data set on Circular template was determined as 5 nM. Moreover, in data set [10], the “binding of TO1 fluorophore derivatives” value is given as “bound to a broad set of TO1 fluorophore derivatives”.

“U6-Mango-IV: U6 snRNA with Mango-IV in an internal stem loop; SEQ ID NO: 6896 [Mango U6-Mango-IV]”: in the data set on HEK293T cells, the “increase of the fraction of nuclear foci” value was ~9 fold. Besides, the “fluorescence intensity in vitro” value in data set [11] was “comparable fluorescence intensity to Mango IV alone”.
